Patent US11647752B2 (priority 2020, dated 2023)
Where “and” joins values, the source holds several entries; their conditions need not be identical. Identical values can stand only once. Like-named read-outs stand apart in the source and are kept apart here.

Legend:
[1] = test system: Ralstonia solanacearum in tobacco roots; type: in vivo; details: for Amount of Ralstonia solanacearum in the roots: 12 h of inoculation
[2] = test system: Ralstonia solanacearum (tobacco bacterial wilt pathogen HF-1-1); type: cell-based; details: 50 μL per hole, 37° C., 12 h
[3] = test system: Ralstonia solanacearum (pathogen HF-1-1); type: cell-based; details: NaHS 0, 200, 400, 600, 800 mg/L in liquid culture, 12 h, 37° C.

SMILES | Amount of Ralstonia solanacearum in the roots ([1]; N- (10 mL 0.8 mmol hydroxylamine)) | Diameter of inhibition zone ([2]; NaHS 200 mg/L) | Diameter of inhibition zone ([2]; NaHS 400 mg/L) | Diameter of inhibition zone ([2]; NaHS 600 mg/L) | Diameter of inhibition zone ([2]; NaHS 800 mg/L) | Biomass of the pathogen HF-1-1 (OD600) [3] | Amount of Ralstonia solanacearum in the roots ([1]; N200 (NaHS 200 mg/L)) | Content of Ralstonia solanacearum in the tobacco roots compared with CK and N- groups ([1]; N200-N800 (NaHS 200-800 mg/L), 24 h and 36 h) | Amount of Ralstonia solanacearum in the roots ([1]; N400 (NaHS 400 mg/L)) | Amount of Ralstonia solanacearum in the roots ([1]; N600 (NaHS 600 mg/L)) | Amount of Ralstonia solanacearum in the roots ([1]; N800 (NaHS 800 mg/L)) | Decrease of number of Ralstonia solanacearum colonized on tobacco roots compared with control group ([1]; NaHS 800 mg/L, 36 hours) [%]
NO [H2S inhibitor, hydroxylamine, reference compound] | 1.38 ×10^4 CFU/g |  |  |  |  |  |  |  |  |  |  | 
[Na+].[SH-] [NaHS] |  | 11.20±0.72 mm and 11.20 mm | 14.61±0.93 mm and 14.61 mm | 19.43±0.41 mm and 19.43 mm | 21.21±1.22 mm and 21.21 mm | decreased with the increase of its concentration | 1.36 ×10^4 CFU/g | relatively lower | 1.39 ×10^4 CFU/g | 1.40 ×10^4 CFU/g | 1.37 ×10^4 CFU/g | 98.32
